The results in this text go back to patent EP2173340B1, “METHODS OF ENHANCING COGNITIVE FUNCTION USING NON-PEPTIDIC COMPOUNDS” (Acumen Pharmaceuticals, Inc., priority 2007, dated 2009).

In the first experiment the target is T1, Aβ1-42 (Homo sapiens, UniProt P05067).
T1 construct: containing 0.2 µM FITC-Aβ(1-42) and 0.8 µM Aβ(1-42)
T1 sequence (P05067 672-713 limits assumed): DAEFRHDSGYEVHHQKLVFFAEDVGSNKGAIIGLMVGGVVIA
As to the kind of experiment: FRET assay of Aβ1-42 oligomer (ADDL) formation. Format: biochemical. Particulars: 1 mM Aβ1-42 total monomer; 100 mM MgCl2; compound ranging from 0.05 to 3 mM; FIG. 1. From the text:
Fluorescence (or Förster) Resonance Energy Transfer (FRET) is a distance-dependent, non-radiative transfer of energy in which the de-excitation of one fluorophore (donor) is coupled to excitation of another fluorophore (acceptor). FRET occurs if (1) the quantum of energy emitted by a donor fluorophore corresponds to an acceptor fluorophore's excitation energy, (2) the orientations of donor and acceptor transition dipoles are nearly parallel and (3) the donor fluorescent emission spectrum overlaps the acceptor absorption spectrum.
In this assay, Aβ1-42 oligomer formation is monitored by FRET using N-terminal conjugates of fluorescein-Aβ1-42 as both the donor and acceptor fluorophore (fluorescein-fluorescein Ro∼45 Å). […] Inhibition of Aβ1-42 assembly is observed as the absence or attenuation of fluorescein quenching.
FRET and FP assays are performed in 384-well Coming Non-Binding Surface, black, opaque microtiter plates, and the assay buffer consists of 50 mM MOPS-Tris (pH 8.0) with 100 mM MgCl2. […] ADDL assembly is monitored on a Tecan GENios Pro plate reader, exciting at a wavelength of 485 nm and detecting emission at a wavelength of 515 nm. Kinetic traces are collected by recording fluorescence intensity and polarization readings every five minutes over about three to about a six-hour time course. […] Positive control reactions contain all buffer components in the absence of added small molecule or antibody reagents. […]
Consider `CCOC(=O)c1c(NC(=O)C(=O)N/N=C/c2ccccc2O)sc2c1CCC(C)C2` (centres unmarked) [Compound 7, 2-{[1-(2-Hydroxyphenyl)-meth-(E)-ylidene-hydrazinooxalyl]-amino} -6-methyl-4,5,6,7-tetrahydro-benzo[b]thiophene-3-carboxylic acid ethyl ester], for which the “inhibition of Aβ1-42 oligomer assembly” value is “dose dependent inhibition”.

Still in this experiment, the particulars now being: assay of Example 1; 0.2 µM FITC-Aβ(1-42) and 0.8 µM Aβ(1-42), 100 mM MgCl2, pH 8.0, 37°C.
A word on the IC50: it is the concentration that gives 50% inhibition. A high value points to lower potency. In the case of `O=C(N/N=C/c1cc(Br)ccc1O)c1ccccc1O` [Compound 27, (E)-N'-(5-bromo-2-hydroxybenzylidene)-2-hydroxybenzohydrazide], the IC50 turned out to be 19.3 µM.

On to `CC(C)CC1=NN(C(=O)C(=O)NCCc2ccccc2)C(O)(C(F)(F)F)C1` (centres unmarked) [Compound 17, 2-(5-hydroxy-3-isobutyl-5-(trifluoromethyl)-0,5-dihydro-1H-pyrazol-1-yl)-2-oxo-N-phenethylacetamide], for which 41.3 µM corresponded to half-maximal inhibition (IC50). Compound `CC(C)CCC1=NN(C(=O)C(=O)NCCc2ccccc2)C(O)(C(F)(F)F)C1` (centres unmarked) [Compound 20, 2-(5-hydroxy-3-isopentyl-5-(trifluoromethyl)-4,5-dihydro-1H-pyrazol-1-yl)-2-oxo-N-phenethylacetamide] returned an IC50 of 17 µM. On the same count and under the same terms, the figure for `CCCCCCC1=NN(C(=O)C(=O)Nc2ccc(OC)cc2)C(O)(C(F)(F)F)C1` (centres unmarked) [Compound 22, 2-(3-hexyl-5-hydroxy-5-(trifluoromethyl)-4,5-dihydro-1H-pyrazol-1-yl)-N-(4-methoxyphenyl)-2-oxoacetamide] is 8.2 µM; for `CCCC1=NN(C(=O)c2ccccc2O)C(O)(C(F)(F)F)C1` (centres unmarked) [Compound 12, (5-hydroxy-3-propyl-5-(trifluoromethyl)-4,5-dihydro-1H-pyrazol-1-yl)(2-hydroxyphenyl)methanone] it is 8.5 µM. On the same count and under the same terms, the figure for `CCCCC1=NN(C(=O)C(=O)NCCc2ccccc2)C(O)(C(F)(F)F)C1` (centres unmarked) [Compound 16, 2-(3-butyl-5-hydroxy-5-(trifluoromethyl)-4,5-dihydro-1H-pyrazol-1-yl)-2-oxo-N-phenethylacetamide] is 38.8 µM; for `O=C(C/C(=N/NC(=O)c1ccccc1O)C(F)(F)F)c1ccco1` [Compound 3, 2-Hydroxy-benzoic acid [3-oxo-3-furan-2-yl-1-trifluoromethyl-prop-(Z)-ylidene)-hydrazide] it is 13.5 µM; for `O=C(C/C(=N/NC(=O)c1ccccc1O)C(F)(F)F)c1cccs1` [Compound 2, 2-Hydroxy-benzoic acid [3-oxo-3-thiophen-2-yl-1-trifluoromethyl-prop-(Z)-ylidene]-hydrazide] it is 26 µM. Same read-out and setting: as for `COc1ccccc1NC(=O)C(=O)N1N=C(C(C)C)CC1(O)C(F)(F)F` (centres unmarked) [Compound 10, 2-(5-hydroxy-3-isopropyl-5-(trifluoromethyl)-4,5-dihydro-1H-pyrazol-1-yl)-N-(2-methoxyphenyl)-2-oxoacetamide], the figure is 24.3 µM; as for `CCC1=NN(C(=O)C(=O)Nc2ccccc2OC)C(O)(C(F)(F)F)C1` (centres unmarked) [Compound 8, 2-(3-ethyl-5-hydroxy-5-(trifluoromethyl)-4,5-dihydro-1H-pyrazol-1-yl)-N-(2-methoxyphenyl)-2-oxoacetamide], 7 µM; as for `CCCC1=NN(C(=O)C(=O)NCCc2ccccc2)C(O)(C(F)(F)F)C1` (centres unmarked) [Compound 14, 2-(5-hydroxy-3-propyl-5-(trifluoromethyl)-4,5-dihydro-1H-pyrazol-1-yl)-2-oxo-N-phenethylacetamide], 34.4 µM. Turning to `O=C(N/N=C/c1cc(Br)cc(Br)c1O)c1ccccc1O` [Compound 26, (E)-N'-(3,5-dibromo-2-hydroxybenzylidene)-2-hydroxybenzohydrazide], half-maximal inhibition (IC50) required 5.8 µM.

The compound `CCC1=NN(C(=O)C(=O)Nc2ccc(Br)cc2)C(O)(C(F)(F)F)C1` (centres unmarked) [Compound 13, N-(4-bromophenyl)-2-(3-ethyl-5-hydroxy-5-(trifluoromethyl)-4,5-dihydro-1H-pyrazol-1-yl)-2-oxoacetamide] yielded an IC50 of 17 µM. On the same count and under the same terms, as for `CCCC1=NN(C(=O)C(=O)Nc2ccccc2OC)C(O)(C(F)(F)F)C1` (centres unmarked) [Compound 9, 2-(5-hydroxy-3-propyl-5-(trifluoromethyl)-4,5-dihydro-1H-pyrazol-1-yl)-N-(2-methoxyphenyl)-2-oxoacetamide], the figure is 6.4 µM. The same measure, in the same setting: the figure for `CCCCCC1=NN(C(=O)C(=O)Nc2ccc(Br)cc2)C(O)(C(F)(F)F)C1` (centres unmarked) [Compound 18, N-(4-bromophenyl)-2-(5-hydroxy-3-pentyl-5-(trifluoromethyl)-4,5-dihydro-1H-pyrazol-1-yl)-2-oxoacetamide] is 11.6 µM; for `CCCC1=NN(C(=O)C(=O)Nc2ccc(Br)cc2)C(O)(C(F)(F)F)C1` (centres unmarked) [Compound 15, N-(4-bromophenyl)-2-(5-hydroxy-3-propyl-5-(trifluoromethyl)-4,5-dihydro-1H-pyrazol-1-yl)-2-oxoacetamide] it is 7.8 µM.

In turn, `CCCCCC1=NN(C(=O)C(=O)Nc2ccc(OC)cc2)C(O)(C(F)(F)F)C1` (centres unmarked) [Compound 19, 2-(5-hydroxy-3-pentyl-5-(trifluoromethyl)-4,5-dihydro-1H-pyrazol-1-yl)-N-(4-methoxyphenyl)-2-oxoacetamide] gave an IC50 of 8.7 µM. Same read-out and setting: the figure for `COc1ccccc1NC(=O)C(=O)N1N=C(C2CCCCC2)CC1(O)C(F)(F)F` (centres unmarked) [Compound 23, 2-(3-cyclohexyl-5-hydroxy-5-(trifluoromethyl)-4,5-dihydro-1H-pyrazol-1-yl)-N-(2-methoxyphenyl)-2-oxoacetamide] is 29.1 µM.

Still in this experiment, the particulars now being: standard FRET assay conditions of Example 1; comparative example; FIG 2.
As for `NCCCS(=O)(=O)O` [Alzhemed, 3-amino-1-propanesulfonic acid, reference compound], the “inhibition of Aβ1-42 monomer assembly into Aβ oligomers” value is on record as “inability”.
